Tests used:
in vitro [1] = details: human
Procedure: The hydrolysis properties of TriPPPro‐compounds 10 and 20 were evaluated in phosphate buffer saline (PBS, pH 7.3), pig liver esterase (PLE) or CEM/0 cell extracts. In both cases, hydrolysis products were analyzed by means of analytical RP18‐HPLC and the hydrolysis half‐lives (Table 1 , t1/2 ) of TriPPPro‐compounds 10 and 20 were calculated after complete consumption of the starting materials.
The hydrolysis of TriPPPro‐compounds 10 and 20 was carried out with CEM/0 cell extracts as well. […]
Part 6. Enzyme-Catalyzed Hydrolysis of TriPPPro-compounds 10 and 20 in CEM Cell […]
First prepare 3.0 mM hydrolysis solutions of Tri PPPro-compounds 10 and 20 in DMSO and H2O: 21 µL stock solution (50 mM in DMSO) and 154 µL DMSO, and 175 µL Milli-Q water. Three-twelve different samples (20 µL 3.0 mM hydrolysis solutions) were prepared in 2 mL Eppendorf® vials. Then, aliquots of 50 µL human CEM cell extracts were added to these samples and the reaction was started. The samples were incubated at 37 °C in a thermomixer for different time periods. The reaction was stopped by addition of 150 µL MeOH and kept on ice for 5 min. After centrifugation at 14,000 rpm for 12 min, the supernatants were filtered (Chromafil RC-20/15 MS, 0.2 μm) and stored in liquid nitrogen. When testing, aliquots of 60 µL (injection volume) were analyzed by analytical HPLC (HPLC Method). The calculation of t1/2 was obtained using Origin again.
(§1) Part 7. Hydrolysis of TriPPPro-compounds 10 and 20 in human plasma.
µL 3.0 mM hydrolysis solutions) were prepared in 2 mL Eppendorf® vials.

HIV‐2 [ROD)] = experiment: Anti-HIV activity, HIV-2 in thymidine kinase-deficient CEM/TK^− cells; type: cell-based; details: Human immunodeficiency virus 2, CEM-TK(-), thymidine kinase-deficient CEM/TK^− cells, mean ±SD n = 2–3; read-out: Antiviral activity CEM/TK^− HIV‐2 [ROD)] EC50
Procedure: (§2) Part 9. Anti-HIV activity assay.
(§3) The produce was used as previously reported. 5 Inhibition of HIV-1(IIIB)- and HIV-2(ROD)-induced cytopathogenicity in wild-type CEM/0 and thymidine kinase-deficient CEM/TK– cell cultures was measured in […]
(§4) containing appropriate dilutions of the test compounds. After 4−5 days of incubation at 37 °C in a CO2-controlled humidified atmosphere, CEM giant (syncytium) cell formation was examined microscopically. The […]
(§5) giant cell formation by 50%.
(§6) Part 10. Primer-extension assays. […]

in vitro [2] = details: human, CEM/0 cells (wild-type CD4+ T-cells)
Procedure: All TriPPPro‐compounds 10 and 20, as well as their parent nucleosides and the corresponding NTPs, were evaluated for their antiviral activity (expressed as EC50 values) against HIV‐1 (wild‐type CEM/0 cells) and HIV‐2 (wild‐type CEM/0 cells and thymidine kinase‐deficient (CEM/TK^−) cells) with concomitant determination of cytotoxicity in the same cell line (Table 3 ).

[3] = Chemical hydrolysis in phosphate buffer saline (PBS, pH 7.3); type: physicochemical; details: PBS pH 7.3, 37 °C, read-out: PBS pH 7.3 t 1/2 (converted)
Procedure: (§7) Part 4. Chemical Hydrolysis of TriPPPro-compounds 10 and 20.
Second prepare 1.9 mM hydrolysis […]
(§8) Then, aliquots of 50 µL human

HIV‐2 [ROD] = experiment: Anti-HIV activity, HIV-2 in wild-type CEM/0 cells; type: cell-based; details: Human immunodeficiency virus 2, CCRF-CEM; wild-type CEM/0 cells, mean ±SD n = 2–3; read-out: Antiviral activity CEM/0 HIV‐2 [ROD] EC50
Procedure: as §2, §3, §4, §5, §6

in vitro [4] = details: human, plasma
Procedure: First prepare 50 mM solutions of TriPPPro-compounds 10 and 20 in DMSO. […]
First prepare 3.0 mM hydrolysis solutions of Tri PPPro-compounds 10 and 20 in DMSO and H2O: 21 µL stock solution (50 mM in DMSO) and 154 µL DMSO, and 175 µL Milli-Q water. Three-twelve different samples (20 […]
The calculation of t1/2 was obtained using Origin again.
as §1
µL 3.0 mM hydrolysis solutions) were prepared in 2 mL Eppendorf® vials. Then, aliquots of 50 µL human Plasma (Heparin or Citrate) were added to these samples and the reaction was started. The samples were […]
incubated at 37 °C in a thermomixer for different time periods. The reaction was stopped by addition of 150 µL MeOH and kept on ice for 5 min. After centrifugation at 14,000 rpm for 22 min, the supernatants were filtered (Chromafil RC-20/15 MS, 0.2 μm) and stored in liquid nitrogen. When testing, aliquots of 25 0r 30 µL (injection volume) were analyzed by analytical HPLC (HPLC Method). The calculation of t1/2 was obtained using Origin […]
Part 8. Preparation of cell extracts and human plasma. […]

pig liver esterase (PLE) = experiment: Hydrolysis with pig liver esterase (PLE); type: in vitro ADME; details: pig liver esterase (PLE) in PBS, PLE in PBS pH 7.3, 37 °C, read-out: PLE t 1/2 (converted)
Source text: Next, TriPPPro‐compounds 10 and 20 were exposed to PLE in PBS (pH 7.3) and the half‐lives of TriPPPro‐compounds 10 and 20 are listed in Table 1. […] In contrast, the cleavage of the AB (C4) masking group in TriPPPro‐compounds 10by–hy and 10bz–hz was triggered by ester hydrolysis and yielded the corresponding γ‐alkylated nucleoside triphosphate derivatives 20 (Figure 3B,D) and 21 (Figures S17 and S18, Supporting Information), respectively. […] Moreover, a very small amount of NDPs was observed, probably due to a reaction involving a nucleophilic reaction at the γ‐phosphate or γ‐phosphonate moiety (pathways d and f, Scheme 5). […]
as §7
Second prepare 1.9 mM hydrolysis
Part 5. Hydrolysis of TriPPPro-compounds 10 and 20 with PLE .
Second, 125 µL DMSO and 833 µL
62.5 µL of PLE solution in PBS (100
mixture was stored in the freezer (- 30 °C).
by analytical HPLC (HPLC Method).
similar to that for the chemical hydrolysis studies. […]
as §8

HIV‐1 [HE] = experiment: Anti-HIV activity, HIV-1 in wild-type CEM/0 cells; type: cell-based; details: Human immunodeficiency virus 1, CCRF-CEM; wild-type CEM/0 cells, mean ±SD n = 2–3; read-out: Antiviral activity CEM/0 HIV‐1 [HE] EC50
[5] = t 1/2 in human plasma (over heparin and citrate plasma)

SMILES | half-life at 0.86 mM (in vitro [1]) [h] | EC50 (HIV‐2 [ROD)]) [nM] | CC50 (in vitro [2]) [nM] | half-life at 1.9 mM [3] [days] | EC50 (HIV‐2 [ROD]) [nM] | half-life at 0.86 mM (in vitro [4]; Plasma (Citrate) t 1/2) [h] | half-life at 0.86 mM (in vitro [4]; Plasma (Heparin) t 1/2) [h] | half-life at 0.86 mM (in vitro [4]; [5]) [h] | half-life at 0.45 mM (pig liver esterase (PLE)) [h] | EC50 (HIV‐1 [HE]) [nM]
CCCCCCCCCCCCCCCCCCOP(=O)(OCCCC)OP(=O)(O)OP(=O)(O)OC[C@H]1O[C@@H](n2cc(C)c(=O)[nH]c2=O)C[C@@H]1N=[N+]=[N-] (stereo partly shown) [10bv, γ‐(alkyl‐C4;alkyl‐C18)‐AZTTP] | > 30 | 290 ± 150 | 64900 | > 83.3 | 26 ± 7 | > 20 | > 20 | > 8 | > 150 | 41 ± 19
CCCCCCCCCCCCCCCCCCOP(=O)(OCc1ccc(OC(=O)CCCC)cc1)OP(=O)(O)OP(=O)(O)OCC1OC(n2cc(C)c(=O)[nH]c2=O)CC1N=[N+]=[N-] (stereo not shown) [10by, γ‐(AB‐C4;alkyl‐C18)‐AZTTP] | 3.3 | 500 ± 350 | 60100 | 17.4 | 5.2 ± 4.1 | 3.7 | 5.2 |  | 0.22 | 190 ± 120
CCCCCCCCCCCCCCCCCCP(=O)(OCc1ccc(OC(=O)CCCC)cc1)OP(=O)(O)OP(=O)(O)OC[C@H]1O[C@@H](n2cc(C)c(=O)[nH]c2=O)C[C@@H]1N=[N+]=[N-] (stereo partly shown) [10bz, γ‐(AB‐C4)‐γ‐C‐(alkyl‐C18)‐AZTTP] | 8 | 310 ± 26 | 58900 | 41 | 7.5 ± 8.1 | 4.4 | 7.6 | 4.4 to 7.6 | 0.25 | 150 ± 150
CCCCCCCCCCCCCCCCCCOP(=O)(O)OP(=O)(O)OP(=O)(O)OC[C@@H]1O[C@H](n2cc(F)c(N)nc2=O)CS1 [20c, γ‐C18‐FTCTP] | > 30 | 51 ± 69 | 63400 ± 13700 | > 83.3 | 220 ± 20 |  |  |  | > 150 | 350 ± 250
CCCCCCCCCCCCCCCCCCOP(=O)(O)OP(=O)(O)OP(=O)(O)OC[C@H]1O[C@@H](n2cc(Cl)c(=O)[nH]c2=O)C[C@@H]1F [20d] | > 20 | 62100 | > 100000 | > 83.3 | 2240 ± 650 |  |  |  | > 150 | 3140 ± 2930
CCCCCCCCCCCCCCCCCCOP(=O)(O)OP(=O)(O)OP(=O)(O)OC[C@H]1O[C@@H](n2ccc(=O)[nH]c2=O)C[C@@H]1F [20e, γ‐C18‐FddUTP] | > 20 | 3560 ± 1880 | 63700 ± 13600 | > 83.3 | 390 ± 300 |  |  |  | > 150 | 92 ± 82
CCCCCCCCCCCCCCCCCCOP(=O)(O)OP(=O)(O)OP(=O)(O)OC[C@H]1O[C@@H](n2cc(C)c(=O)[nH]c2=O)C[C@@H]1F [20f, γ‐C18‐FLTTP] | > 20 | 1270 ± 540 | > 100000 | > 83.3 | 10 ± 1 |  |  |  | > 150 | 19 ± 19
CCCCCCCCCCCCCCCCCCOP(=O)(O)OP(=O)(O)OP(=O)(O)OC[C@H]1O[C@@H](n2cc(/C=C/Br)c(=O)[nH]c2=O)C[C@@H]1O [20g] | > 20 | 15700 ± 980 | > 100000 | > 83.3 | > 10000 |  |  |  | > 150 | > 10000
